Literature values as cited in publication PMC12260505, “First-in-Human Phase I/IIa Study of the First-in-Class CDK2/4/6 Inhibitor PF-06873600 Alone or with Endocrine Therapy in Patients with Breast Cancer” (Clinical Cancer Research, 2025).

Target: CDK1
Parameters: method as in PMID 34110834
Conditions: cited from earlier work

Structure (SMILES): C[C@@]1(O)CCC[C@H]1n1c(=O)c(C(F)F)cc2cnc(NC3CCN(S(C)(=O)=O)CC3)nc21 [PF-06873600]
- Ki: 4.5 nM
